Measurements taken from patent US20220409526A1 (Retina Foundation Of The Southwest, priority 2019, published 2022).
“Also recorded” adds a separate entry of the source.

Key:
[1] = system: ARPE-19 cells; assay: CellTiter-Glo assay (ATP); assay type: cell-based, human; details: 1 mM pretreatment, then 500 μM HQ for 3, 6 and 8 hours
Protocol: ARPE-19 cells were grown in white 96 well plates. The cells were first exposed to 500 μM of HQ for 3, 6 and 8 hours and the amount of ATP produced was measured using the CellTiter-Glo assay kit to obtain a time dependent response (FIG. 15). […] Due to the mitochondrial damage caused by HQ, the production of ATP was decreased.

[2] = system: ARPE-19 cells; assay: JC-1 staining (confocal); details: 1 mM pretreatment for 24 hours, then 50 μM HQ for 4 hours
Source text: The cells were imaged on the confocal (Zeiss LSM 800) by excitation with the 488 nm laser and emission imaged at 530 nm (green channel) and 590 nm (red channel).

[3] = system: mitochondrial DNA of ARPE-19 cells; assay: DNA fragmentation assay (long-extension PCR of mitochondrial DNA); assay type: cell-based, human; details: pretreatment for 24 hours (1 mM), then 500 uM HQ for 24 hours
Protocol: Mitochondrial DNA damage has been linked to pathogenic diseases, including AMD. To determine if pretreatment of RPE cells with NAC alkyl-ester analogues could protect mitochondrial DNA against oxidative damage, a long-extension PCR based assay was used to measure amplification of a large stretch of mitochondrial DNA. The mitochondrial DNA damage assay was performed according to protocols known to those in the art (see Santos, J. H.; Mandavilli, B. S.; Van Houten, B., Measuring Oxidative mtDNA Damage and Repair Using Quantitative PCR. In Mitochondrial DNA: Methods and Protocols, Copeland, W. C., Ed. Humana Press: Totowa, N.J., 2002; pp 159-176). Briefly, ARPE-19 cells were grown to confluency in 6-well plates. The cells were treated with NAC alkyl-ester analogues for 24 hours, washed and then treated with 500 uM HQ for an additional 24 hours. DNA was isolated from the treated cells with a QIAamp DNA mini kit (Qiagen). The DNA samples were diluted to 3 ng/μl for use in PCR reactions. PCR products were quantified using the Quant-iT Picogreen dsDNA Assay kit (Invitrogen). The relative amplification of the large band was normalized to untreated cells. The amplification of the small mitochondrial band was used to normalize the data obtained from the large band to account for mitochondrial DNA copy number.

[4] = system: ARPE-19 cells; assay: HPLC analysis of cellular uptake and conversion to NAC; assay type: in vitro ADME, human; details: 1 mM for 1 hour in HBSS
Protocol: ARPE-19 cells were seeded onto a 60 cm^2 dish and was allowed to grow to confluency. The cells were treated with 1 mM NAC and NACBE for 1 hour in HBSS. The drug solution was aspirated and washed twice with HBSS. The cells were scraped with the aid of methanol (˜1 mL) and collected into 2 mL centrifuge tubes. The cell suspension in methanol was sonicated (for cell lysis) in a water bath for 30 minutes and was centrifuged at 14,000 RPM for 15 minutes. The supernatant was transferred to a HPLC vial and methanol was evaporated under a stream of nitrogen.
The sample was resuspended in 50 μL of methanol before injecting into the HPLC system. Samples and standard (20 μL) were injected with an autosampler. Separation was conducted by 0.8 mL/min gradient elution with a water/0.10% formic acid and acetonitrile mobile phase on a 250×4.6-mm ([…]) C18 column (Restek, Pinnacle II) maintained at 25° C. The samples were monitored at 205 nm with a UV detector and analyzed with Agilent Chemstation software.

[5] = system: ARPE-19 cells; assay: ZO-1 staining of cellular junctions; assay type: cell-based, human
Protocol: ARPE-19 cells were grown on an 8-well slide until confluent. The cells were exposed to 1 mM NAC and NACBE for 24 hours, followed by treatment with 500 μM of HQ for 2 hours. The cells were washed with 3 cycles of PBS, and then fixed with 4% Paraformaldehyde at 4° C. for 30 mins. After fixation the cells were blocked in PBST (0.2% Triton X-100)+1% BSA for 60 mins. Primary antibody (rabbit anti-Zo-1, Invitrogen) was diluted 1/100 in PBST+1% BSA and added overnight at […]. Cells were washed ×3 with PBS and secondary antibody (Donkey anti-Rabbit AF-555, Abcam) was added for 4 hours at RT. Cells were washed ×3 with PBS and mounted with Prolong Diamond Mountant with DAPI (Invitrogen).

Q: What does the source list for `CCCCOC(=O)[C@H](CS)NC(C)=O` [NACBE, N-acetylcysteine butyl ester]?
A: ATP production after HQ insult [1]: ATP production remained unaltered; mitochondrial membrane potential after HQ (JC-1 staining) [2]: preserved the mitochondrial membrane potential; protection of mitochondrial DNA amplification against HQ [3]: keep the PCR amplification of the mitochondrial DNA intact; compound and metabolite detected within the cells by HPLC [4]: both NACBE (prodrug) and NAC (metabolite) within the cells; also recorded: taken up by the cells more effectively than NAC; ZO-1 staining of cell-cell junctions ([5]; 1 mM for 24 hours, without HQ): proper cell-cell junctions; ZO-1 staining of cellular junctions after exposure to HQ ([5]; 1 mM pretreatment for 24 hours, then 500 μM HQ for 2 hours): intact
